Results taken from patent US10864225B2, “Treatment of metabolic disorders in equine animals” (Boehringer Ingelheim Vetmedica GmbH, priority 2013, dated 2020).

SMILES: N#Cc1ccc([C@@H]2O[C@H](CO)[C@@H](O)[C@H](O)[C@H]2O)cc1Cc1ccc(C2CC2)cc1.O=C(O)[C@@H]1CCCN1
- mechanical stability of the crystals (allows grinding of the crystals): high mechanical stability
- physical and chemical stability (under various environmental conditions and during the production of a medicament): high physical and chemical stability
